Each structure is given as a SMILES string.

One experiment deals with Daudi. As to the kind of experiment: Cytotoxicity, MTS cell viability. The class given is cell-based. The conditions noted are these: Homo sapiens, 72 h, Burkitt's, 3 days MTS. The protocol: (§1) Cells were seeded in a 96 well plate and treated with either vehicle (DMSO) or compound 7 at 10 different concentrations for 3 days at 37° C. and 5% CO2. Cell viability was assessed using CellTiter 96 AQueous one solution (MTS Promega Cat#G3581), and IC50 values calculated using GraphPad Prism 7 software.
(§2) Cytotoxicity procedure: Cells were seeded in 96-well plate and treated with vehicle DMSO or Compound 7 at a specified concentration and incubated for 72 hours.

For another experiment, the system named is Jeko-1. As to the kind of experiment: Cytotoxicity, MTS cell viability. The experiment is classed as cell-based. The settings on record: Homo sapiens, 72 h, MCL, 3 days MTS. How it is done:
as §1, §2

A further experiment deals with MEC-1. As to the kind of experiment: Cytotoxicity, MTS cell viability. The conditions noted are these: CLL, 3 days MTS. The experiment is classed as cell-based. How it is done:
as §1, §2

Another experiment concerns Mino. As to the kind of experiment: Cytotoxicity, MTS cell viability. The experiment is classed as cell-based. The settings on record: Homo sapiens, 72 h, MCL, 3 days MTS. The protocol: as §1, §2
Another experiment concerns RL. Description: Cytotoxicity, MTS cell viability. The class given is cell-based. The conditions noted are these: Homo sapiens, 72 h, DLBCL / GCB-DLBCL, 3 days MTS. The protocol: as §1, §2
For the next experiment, the system named is Raji. Description: Cytotoxicity, MTS cell viability. The experiment is classed as cell-based. The settings on record: Burkitt's, 3 days MTS. How it is done: as §1, §2
Experiment [1] deals with Ba/F3-ITD + D835H (FLT3-ITD + D835H). Description: Antiproliferative activity (Table 6). The settings on record: 72 h. The experiment is classed as cell-based, Murin.
Experiment [2] has as its system MOLM14 (FLT3-ITD, t(9:11)). As to the kind of experiment: Antiproliferative activity (Table 6). The class given is cell-based. The settings on record: Homo sapiens, MOLM-14, 72 h.
The subject of a further experiment is KG-1 cells. Description: Cell-cycle dysregulation (flow cytometry). The class given is cell-based. The settings on record: dose-dependent. The protocol: (§3) Cell-cycle analysis: Cells were treated with vehicle, DMSO or Compound 7 and were stained with PI and EdU, and then analyzed by flow cytometry to determine the phases of cell cycle.
Background: A flow cytometer gives signals particle by particle.

A further experiment deals with NOMO-1 cells. As to the kind of experiment: Cell-cycle dysregulation (flow cytometry). The conditions noted are these: dose-dependent. The experiment is classed as cell-based. The protocol: as §3
The test system of experiment [3] is isogenic BA/F3 cells with FLT3 mutations. As to the kind of experiment: Cell-cycle dysregulation (flow cytometry). The settings on record: dose-dependent. The class given is cell-based. The protocol:
as §3

For a further experiment, the system named is Ramos. Description: Polyploidy in B-cell lines (Edu and PI staining, FACS). The conditions noted are these: 5 nM. The experiment is classed as cell-based. The protocol: Further mechanistic studies were undertaken to fully elucidate Compound 7's potent cytotoxicity. B-cell lines were treated with vehicle or Compound 7 for 24-72 hours and the increase in DNA content or polyploidy phenotype was assessed using Edu and PI staining followed by FACS analysis using the BD Accuri C6 flow cytometer.
Mino and Ramos cell lines were treated with increasing concentrations of.

Experiment [4] relates to BTK and Aurora kinase in Ramos cells. As to the kind of experiment: Cell signaling in Ramos cells (Western blot). The settings on record: relative to ibrutinib. The experiment is classed as cell-based. How it is done: Immunoblot assays: Cells were treated with Compound 7 at various concentrations and collected for cell lysates. The total and phosphorylated levels of the indicated proteins were determined by Western Blot.
On the technique in general: A western blot detects proteins with antibodies after separation by electrophoresis.

Turning to `Cc1cnc(-c2ccc(-c3ccc(NC(=O)Nc4c(F)cc(F)cc4F)cc3F)c3c2C(=O)NC3)[nH]1` [Compound 7, 1-{3-fluoro-4-[7-(5-methyl-1H-imidazol-2-yl)-1-oxo-2,3-dihydro-1H-isoindol-4-yl]-phenyl}-3-(2,4,6-trifluorophenyl)urea], the IC50 (commonly the midpoint of a concentration-inhibition curve) amounted to 166 nM in the experiment on Daudi; 73.8 nM in the experiment with Jeko-1; 3800 nM with MEC-1; 3800 nM in the experiment on MEC-1 (Homo sapiens, MEC1, 72 h); 5.98 nM with Mino; 426 nM with RL. For the same compound, the IC50 in the experiment on Raji was determined as 2030 nM; in the experiment with Raji (Homo sapiens, 72 h), 2030 nM; in experiment [1], 6.74 nM; in experiment [2], 0.92 nM. Further, the Cell-cycle dysregulation entry (with KG-1 cells; with NOMO-1 cells; in experiment [3]) was “induce cell-cycle dysregulation” throughout. Moreover, the “Polyploidy (>4n) followed by apoptosis” value in the experiment with Ramos is on record as “effectively induced polyploidy (>4n) followed by apoptosis”. Further, the “BTK and Aurora kinase activity” value in [4] was “inhibits BTK and Aurora kinase activity”.

For the origin of these results see patent US20180344702A1, “METHODS FOR TREATING PATIENTS WITH HEMATOLOGIC MALIGNANCIES” (Aptose Biosciences, Inc., priority 2017, published 2018).
